From ChEMBL document CHEMBL4396865, “Current advances of triazole alcohols derived from fluconazole: Design, in vitro and in silico studies” (2019)
Values after ≈ are worked out from the molar mass of the structure shown.

Tests used:
Type in all cases: functional
Trichophyton rubrum = assay: Antifungal activity against Trichophyton rubrum after 7 days by NCCLS protocol based method; conditions: 168 h
Nannizzia gypsea = assay: Antifungal activity against Microsporum gypseum after 7 days by NCCLS protocol based method; conditions: 168 h
Cryptococcus neoformans = assay: Antifungal activity against Cryptococcus neoformans after 72 hrs by NCCLS protocol based method
Candida albicans = assay: Antifungal activity against Candida albicans after 24 hrs by NCCLS protocol based method
Candida tropicalis = assay: Antifungal activity against Candida tropicalis after 24 hrs by NCCLS protocol based method
Fonsecaea compacta = assay: Antifungal activity against Fonsecaea compacta after 24 hrs by NCCLS protocol based method
Candida parapsilosis = assay: Antifungal activity against Candida parapsilosis after 24 hrs by NCCLS protocol based method; conditions: Lodderomyces parapsilosis

Row | Compound | MIC (Trichophyton rubrum) [ng/mL] | MIC (Nannizzia gypsea) [ng/mL] | MIC (Cryptococcus neoformans) [ng/mL] | MIC (Candida albicans) [ng/mL] | MIC (Candida tropicalis) [ng/mL] | MIC80 (Trichophyton rubrum) [ng/mL] | MIC80 (Fonsecaea compacta) [ng/mL] | MIC80 (Candida parapsilosis) [ng/mL] | MIC80 (Cryptococcus neoformans) [ng/mL] | MIC80 (Candida albicans) [ng/mL] | MIC80 (Candida tropicalis) [ng/mL]
1 | CN(CCCOc1ccc(F)cc1)CC(O)(Cn1cncn1)c1ccc(F)cc1F (centres undefined) | 1 to 16 (≈ 2.38 to 38.1 nM) | 1 to 16 (≈ 2.38 to 38.1 nM) | 1 to 16 (≈ 2.38 to 38.1 nM) | 1 to 16 (≈ 2.38 to 38.1 nM) | 1 to 16 (≈ 2.38 to 38.1 nM) |  |  |  |  |  | 
2 | O=C(OC1CCN(CC(O)(Cn2cncn2)c2ccc(F)cc2F)CC1)c1ccccc1Cl (centres undefined) |  |  |  |  |  | 3.9 to 62.5 (≈ 8.18 to 131 nM) | 3.9 to 62.5 (≈ 8.18 to 131 nM) | 3.9 to 62.5 (≈ 8.18 to 131 nM) | 3.9 to 62.5 (≈ 8.18 to 131 nM) | 3.9 to 62.5 (≈ 8.18 to 131 nM) | 3.9 to 62.5 (≈ 8.18 to 131 nM)
3 | Cc1ccc(OCCCN(C)CC(O)(Cn2cncn2)c2ccc(F)cc2F)cc1 (centres undefined) | 1 (≈ 2.4 nM) | 1 (≈ 2.4 nM) | 1 (≈ 2.4 nM) | 1 (≈ 2.4 nM) | 1 (≈ 2.4 nM) |  |  |  |  |  | 
4 | CN(CCCOc1ccccc1[N+](=O)[O-])CC(O)(Cn1cncn1)c1ccc(F)cc1F (centres undefined) | 1 to 16 (≈ 2.23 to 35.8 nM) | 1 to 16 (≈ 2.23 to 35.8 nM) | 1 to 16 (≈ 2.23 to 35.8 nM) | 1 to 16 (≈ 2.23 to 35.8 nM) | 1 to 16 (≈ 2.23 to 35.8 nM) |  |  |  |  |  | 
5 | O=C(OC1CCN(CC(O)(Cn2cncn2)c2ccc(F)cc2F)CC1)c1ccccc1F (centres undefined) |  |  |  |  |  | 3.9 to 62.5 (≈ 8.47 to 136 nM) | 3.9 to 62.5 (≈ 8.47 to 136 nM) | 3.9 to 62.5 (≈ 8.47 to 136 nM) | 3.9 to 62.5 (≈ 8.47 to 136 nM) | 3.9 to 62.5 (≈ 8.47 to 136 nM) | 3.9 to 62.5 (≈ 8.47 to 136 nM)
6 | Cc1cccc(OCCCCN(C)CC(O)(Cn2cncn2)c2ccc(F)cc2F)c1 (centres undefined) | 1 (≈ 2.32 nM) | 1 (≈ 2.32 nM) | 1 (≈ 2.32 nM) | 1 (≈ 2.32 nM) | 1 (≈ 2.32 nM) |  |  |  |  |  | 
7 | CN(CCCOc1cccc([N+](=O)[O-])c1)CC(O)(Cn1cncn1)c1ccc(F)cc1F (centres undefined) | 1 to 16 (≈ 2.23 to 35.8 nM) | 1 to 16 (≈ 2.23 to 35.8 nM) | 1 to 16 (≈ 2.23 to 35.8 nM) | 1 to 16 (≈ 2.23 to 35.8 nM) | 1 to 16 (≈ 2.23 to 35.8 nM) |  |  |  |  |  | 
8 | CN(CCCCOc1ccc([N+](=O)[O-])cc1)CC(O)(Cn1cncn1)c1ccc(F)cc1F (centres undefined) | 1 (≈ 2.17 nM) | 1 (≈ 2.17 nM) | 1 (≈ 2.17 nM) | 1 (≈ 2.17 nM) | 1 (≈ 2.17 nM) |  |  |  |  |  | 
9 | CCCc1ccc(C(=O)OC2CCN(CC(O)(Cn3cncn3)c3ccc(F)cc3F)CC2)cc1 (centres undefined) |  |  |  |  |  | 3.9 to 62.5 (≈ 8.05 to 129 nM) | 3.9 to 62.5 (≈ 8.05 to 129 nM) | 3.9 to 62.5 (≈ 8.05 to 129 nM) | 3.9 to 62.5 (≈ 8.05 to 129 nM) | 3.9 to 62.5 (≈ 8.05 to 129 nM) | 3.9 to 62.5 (≈ 8.05 to 129 nM)
10 | O=C(OC1CCN(CC(O)(Cn2cncn2)c2ccc(F)cc2F)CC1)c1ccccc1[N+](=O)[O-] (centres undefined) |  |  |  |  |  | 3.9 to 62.5 (≈ 8 to 128 nM) | 3.9 to 62.5 (≈ 8 to 128 nM) | 3.9 to 62.5 (≈ 8 to 128 nM) | 3.9 to 62.5 (≈ 8 to 128 nM) | 3.9 to 62.5 (≈ 8 to 128 nM) | 3.9 to 62.5 (≈ 8 to 128 nM)
11 | CN(CCCCOc1ccccc1[N+](=O)[O-])CC(O)(Cn1cncn1)c1ccc(F)cc1F (centres undefined) | 1 to 16 (≈ 2.17 to 34.7 nM) | 1 to 16 (≈ 2.17 to 34.7 nM) | 1 to 16 (≈ 2.17 to 34.7 nM) | 1 to 16 (≈ 2.17 to 34.7 nM) | 1 to 16 (≈ 2.17 to 34.7 nM) |  |  |  |  |  | 
12 | Cc1ccccc1C(=O)OC1CCN(CC(O)(Cn2cncn2)c2ccc(F)cc2F)CC1 (centres undefined) |  |  |  |  |  | 3.9 to 62.5 (≈ 8.54 to 137 nM) | 3.9 to 62.5 (≈ 8.54 to 137 nM) | 3.9 to 62.5 (≈ 8.54 to 137 nM) | 3.9 to 62.5 (≈ 8.54 to 137 nM) | 3.9 to 62.5 (≈ 8.54 to 137 nM) | 3.9 to 62.5 (≈ 8.54 to 137 nM)
13 | CN(CCCOc1ccc([N+](=O)[O-])cc1)CC(O)(Cn1cncn1)c1ccc(F)cc1F (centres undefined) | 1 (≈ 2.23 nM) | 1 (≈ 2.23 nM) | 1 (≈ 2.23 nM) | 1 (≈ 2.23 nM) | 1 (≈ 2.23 nM) |  |  |  |  |  | 
14 | O=C(OC1CCN(CC(O)(Cn2cncn2)c2ccc(F)cc2F)CC1)c1ccc(F)cc1 (centres undefined) |  |  |  |  |  | 3.9 to 62.5 (≈ 8.47 to 136 nM) | 3.9 to 62.5 (≈ 8.47 to 136 nM) | 3.9 to 62.5 (≈ 8.47 to 136 nM) | 3.9 to 62.5 (≈ 8.47 to 136 nM) | 3.9 to 62.5 (≈ 8.47 to 136 nM) | 3.9 to 62.5 (≈ 8.47 to 136 nM)
15 | COc1ccc(C(=O)OC2CCN(CC(O)(Cn3cncn3)c3ccc(F)cc3F)CC2)cc1 (centres undefined) |  |  |  |  |  | 3.9 to 62.5 (≈ 8.25 to 132 nM) | 3.9 to 62.5 (≈ 8.25 to 132 nM) | 3.9 to 62.5 (≈ 8.25 to 132 nM) | 3.9 to 62.5 (≈ 8.25 to 132 nM) | 3.9 to 62.5 (≈ 8.25 to 132 nM) | 3.9 to 62.5 (≈ 8.25 to 132 nM)
16 | Cc1ccc(C(=O)OC2CCN(CC(O)(Cn3cncn3)c3ccc(F)cc3F)CC2)cc1C (centres undefined) |  |  |  |  |  | 3.9 to 62.5 (≈ 8.29 to 133 nM) | 3.9 to 62.5 (≈ 8.29 to 133 nM) | 3.9 to 62.5 (≈ 8.29 to 133 nM) | 3.9 to 62.5 (≈ 8.29 to 133 nM) | 3.9 to 62.5 (≈ 8.29 to 133 nM) | 3.9 to 62.5 (≈ 8.29 to 133 nM)
17 | COc1cccc(C(=O)OC2CCN(CC(O)(Cn3cncn3)c3ccc(F)cc3F)CC2)c1 (centres undefined) |  |  |  |  |  | 3.9 to 62.5 (≈ 8.25 to 132 nM) | 3.9 to 62.5 (≈ 8.25 to 132 nM) | 3.9 to 62.5 (≈ 8.25 to 132 nM) | 3.9 to 62.5 (≈ 8.25 to 132 nM) | 3.9 to 62.5 (≈ 8.25 to 132 nM) | 3.9 to 62.5 (≈ 8.25 to 132 nM)
18 | O=C(OC1CCN(CC(O)(Cn2cncn2)c2ccc(F)cc2F)CC1)c1cccc([N+](=O)[O-])c1 (centres undefined) |  |  |  |  |  | 3.9 to 62.5 (≈ 8 to 128 nM) | 3.9 to 62.5 (≈ 8 to 128 nM) | 3.9 to 62.5 (≈ 8 to 128 nM) | 3.9 to 62.5 (≈ 8 to 128 nM) | 3.9 to 62.5 (≈ 8 to 128 nM) | 3.9 to 62.5 (≈ 8 to 128 nM)
19 | O=C(OC1CCN(CC(O)(Cn2cncn2)c2ccc(F)cc2F)CC1)c1ccccc1I (centres undefined) |  |  |  |  |  | 3.9 to 62.5 (≈ 6.86 to 110 nM) | 3.9 to 62.5 (≈ 6.86 to 110 nM) | 3.9 to 62.5 (≈ 6.86 to 110 nM) | 3.9 to 62.5 (≈ 6.86 to 110 nM) | 3.9 to 62.5 (≈ 6.86 to 110 nM) | 3.9 to 62.5 (≈ 6.86 to 110 nM)
20 | COc1ccccc1C(=O)OC1CCN(CC(O)(Cn2cncn2)c2ccc(F)cc2F)CC1 (centres undefined) |  |  |  |  |  | 3.9 to 62.5 (≈ 8.25 to 132 nM) | 3.9 to 62.5 (≈ 8.25 to 132 nM) | 3.9 to 62.5 (≈ 8.25 to 132 nM) | 3.9 to 62.5 (≈ 8.25 to 132 nM) | 3.9 to 62.5 (≈ 8.25 to 132 nM) | 3.9 to 62.5 (≈ 8.25 to 132 nM)
21 | CCCCc1ccc(C(=O)OC2CCN(CC(O)(Cn3cncn3)c3ccc(F)cc3F)CC2)cc1 (centres undefined) |  |  |  |  |  | 3.9 to 62.5 (≈ 7.82 to 125 nM) | 3.9 to 62.5 (≈ 7.82 to 125 nM) | 3.9 to 62.5 (≈ 7.82 to 125 nM) | 3.9 to 62.5 (≈ 7.82 to 125 nM) | 3.9 to 62.5 (≈ 7.82 to 125 nM) | 3.9 to 62.5 (≈ 7.82 to 125 nM)
22 | Cc1ccc(C(=O)OC2CCN(CC(O)(Cn3cncn3)c3ccc(F)cc3F)CC2)cc1 (centres undefined) |  |  |  |  |  | 3.9 to 62.5 (≈ 8.54 to 137 nM) | 3.9 to 62.5 (≈ 8.54 to 137 nM) | 3.9 to 62.5 (≈ 8.54 to 137 nM) | 3.9 to 62.5 (≈ 8.54 to 137 nM) | 3.9 to 62.5 (≈ 8.54 to 137 nM) | 3.9 to 62.5 (≈ 8.54 to 137 nM)
